US20240384268A1, “Oligonucleotides” (Hudson Institute of Medical Research, priority 2021, published 2024)
In the oligonucleotide strings, read from the 5' end, every base follows the letter of its sugar. An asterisk marks phosphorothioate; unmarked linkages are phosphodiester. Other units and linkages are bracketed, terminal groups are in braces. A string of capitals states the bases alone. d = 2'-deoxy (DNA); m = 2'-O-methyl

target: T1, TLR8 (Homo sapiens, UniProt Q9NR97); assay: R848-driven IP-10 production in THP-1 cells (TLR8); assay type: cell-based; parameters: expressed in transfected cells; conditions: 3mer 2'OMe ASO at 1 uM; raw values, Ligand only = 355.752, NT = 134.831;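 note: IP-10 by ELISA in supernatant after 7 h R848 stimulation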
T1 sequence (Q9NR97 27-1041): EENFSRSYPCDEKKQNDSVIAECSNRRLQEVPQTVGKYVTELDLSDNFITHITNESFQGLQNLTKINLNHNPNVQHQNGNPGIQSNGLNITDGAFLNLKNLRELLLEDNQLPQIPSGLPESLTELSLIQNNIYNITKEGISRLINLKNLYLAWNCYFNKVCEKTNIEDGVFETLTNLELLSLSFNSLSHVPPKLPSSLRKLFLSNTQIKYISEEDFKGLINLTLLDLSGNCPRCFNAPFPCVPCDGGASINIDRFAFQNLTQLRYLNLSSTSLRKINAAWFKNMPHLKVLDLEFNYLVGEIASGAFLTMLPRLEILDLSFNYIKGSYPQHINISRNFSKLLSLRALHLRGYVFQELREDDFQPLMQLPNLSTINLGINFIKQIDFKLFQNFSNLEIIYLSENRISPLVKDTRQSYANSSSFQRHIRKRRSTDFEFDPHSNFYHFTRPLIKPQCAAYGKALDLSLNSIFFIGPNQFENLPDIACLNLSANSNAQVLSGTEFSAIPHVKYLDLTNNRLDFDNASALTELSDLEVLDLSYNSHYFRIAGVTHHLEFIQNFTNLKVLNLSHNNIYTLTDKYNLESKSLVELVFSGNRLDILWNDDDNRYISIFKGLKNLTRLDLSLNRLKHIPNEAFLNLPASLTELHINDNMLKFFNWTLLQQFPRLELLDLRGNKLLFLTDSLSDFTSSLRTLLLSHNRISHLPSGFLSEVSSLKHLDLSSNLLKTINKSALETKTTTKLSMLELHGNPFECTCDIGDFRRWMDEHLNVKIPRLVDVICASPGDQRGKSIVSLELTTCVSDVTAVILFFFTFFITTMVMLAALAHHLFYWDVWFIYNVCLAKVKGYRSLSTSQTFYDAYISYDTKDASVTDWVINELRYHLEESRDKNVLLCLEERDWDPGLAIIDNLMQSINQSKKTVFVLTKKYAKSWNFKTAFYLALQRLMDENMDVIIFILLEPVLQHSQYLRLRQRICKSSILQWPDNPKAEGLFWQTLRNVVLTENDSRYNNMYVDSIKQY

Row | Substance | TLR8 1 uM
1 | UUU (mU*mU*mU) | 307.213
2 | dA*dA*dA (DNA AAA; listed as DNA, chemistry not fully specified) | 225.029
3 | dA*dA*dC (DNA AAC; listed as DNA, chemistry not fully specified) | 218.889
4 | dA*dA*dG (DNA AAG; listed as DNA, chemistry not fully specified) | 179.302
5 | dA*dC*dA (DNA ACA; listed as RNA, chemistry not fully specified) | 262.630
6 | dA*dG*dA (DNA AGA; listed as DNA, chemistry not fully specified) | 214.450
7 | dA*dG*dC (DNA AGC; listed as DNA, chemistry not fully specified) | 267.225
8 | dC*dA*dA (CAA; listed as DNA, chemistry not fully specified) | 373.157
9 | dC*dA*dC (CAC; listed as RNA, chemistry not fully specified) | 344.415
10 | dC*dC*dA (CCA; listed as DNA, chemistry not fully specified) | 181.239
11 | dC*dC*dC (CCC; listed as DNA, chemistry not fully specified) | 181.399
12 | dC*dC*dG (CCG; listed as DNA, chemistry not fully specified) | 437.264
13 | dC*dG*dA (CGA; listed as DNA, chemistry not fully specified) | 504.099
14 | dG*dC*dC [GCC] | 209.536
15 | dG*dC*dG [GCG] | 290.409
16 | mAmUmC (mA*mU*mC) [AUC, 3-mer 2′OMe PS oligo] | 181.793
17 | mCmUmU (antisense mC*mU*mU) [660-3] | 167.148
18 | mGmAmU (mG*mA*mU) [GAU, 3-mer 2′OMe PS oligo] | 147.162
19 | mGmUmA (GUA; all 2'-O-methyl, backbone not given here; further chemistry not fully specified) [shortMut1-3b] | 133.537
20 | mGmUmC (mG*mU*mC) [GUC, 3-mer 2′OMe PS oligo] | 131.948
21 | mGmUmG (mG*mU*mG) [GUG, 3-mer 2′OMe PS oligo] | 158.982

target: T1, TLR8; assay: HEK-TLR8 NF-κB-luciferase reporter, R848 or Motolimod stimulation (potentiation or inhibition); assay type: cell-based; parameters: expressed in transfected cells; host or cells: 293XLhTLR8 (HEK293); conditions: 3mer 2'OMe ASO at 5 uM; HEK-TLR8; value relative to Ligand only = 1.000, NT = 0.000

Row | Substance | TLR8 HEK 5 uM
22 | UUU (mU*mU*mU) | 0.870
23 | dA*dA*dA (DNA AAA; listed as DNA, chemistry not fully specified) | 0.859
24 | dA*dA*dC (DNA AAC; listed as DNA, chemistry not fully specified) | 0.696
25 | dA*dA*dG (DNA AAG; listed as DNA, chemistry not fully specified) | 0.858
26 | dA*dC*dA (DNA ACA; listed as RNA, chemistry not fully specified) | 0.841
27 | dA*dG*dA (DNA AGA; listed as DNA, chemistry not fully specified) | 1.520
28 | dA*dG*dC (DNA AGC; listed as DNA, chemistry not fully specified) | 1.411
29 | dC*dA*dA (CAA; listed as DNA, chemistry not fully specified) | 0.811
30 | dC*dA*dC (CAC; listed as RNA, chemistry not fully specified) | 0.809
31 | dC*dC*dA (CCA; listed as DNA, chemistry not fully specified) | 0.946
32 | dC*dC*dC (CCC; listed as DNA, chemistry not fully specified) | 0.756
33 | dC*dC*dG (CCG; listed as DNA, chemistry not fully specified) | 0.899
34 | dC*dG*dA (CGA; listed as DNA, chemistry not fully specified) | 1.512
35 | dG*dC*dC [GCC] | 0.701
36 | dG*dC*dG [GCG] | 1.191
37 | mAmUmC (mA*mU*mC) [AUC, 3-mer 2′OMe PS oligo] | 0.674
38 | mCmUmU (antisense mC*mU*mU) [660-3] | 0.712
39 | mGmAmU (mG*mA*mU) [GAU, 3-mer 2′OMe PS oligo] | 0.528
40 | mGmUmA (GUA; all 2'-O-methyl, backbone not given here; further chemistry not fully specified) [shortMut1-3b] | 0.792
41 | mGmUmC (mG*mU*mC) [GUC, 3-mer 2′OMe PS oligo] | 0.763
42 | mGmUmG (mG*mU*mG) [GUG, 3-mer 2′OMe PS oligo] | 0.882

same assay, conditions: HEK-TLR8; 5 μM naked 3-mer; Motolimod

Row | Substance | effect of 3-mer 2′OMe PS oligos on TLR8 sensing in HEK-TLR8 (in words)
43 | mGmAmU (mG*mA*mU) [GAU, 3-mer 2′OMe PS oligo] | robustly the most potent
44 | mGmUmA (GUA; all 2'-O-methyl, backbone not given here; further chemistry not fully specified) [shortMut1-3b] | robustly inhibitory
45 | mGmUmC (mG*mU*mC) [GUC, 3-mer 2′OMe PS oligo] | robustly inhibitory
46 | mGmUmG (mG*mU*mG) [GUG, 3-mer 2′OMe PS oligo] | robustly inhibitory
